The text below walks through data of ChEMBL document CHEMBL5620419, “Discovery of new Lenalidomide derivatives as potent and selective GSPT1 degraders” (Eur J Med Chem, 2023).

The test deals with Protein cereblon/Eukaryotic peptide chain release factor GTP-binding subunit ERF3A (Homo sapiens, UniProt P15170+Q96SW2). In words: PROTAC activity at CRBN/GSPT1 in human U-937 cells assessed as degradation of GSPT1 measured after 6 hrs by Western blot analysis. The format is cell-based. Background: Immunoblotting shows a protein as a band on a membrane.
Protein cereblon/Eukaryotic peptide chain release factor GTP-binding subunit ERF3A, sequence (Q96SW2 whole entry): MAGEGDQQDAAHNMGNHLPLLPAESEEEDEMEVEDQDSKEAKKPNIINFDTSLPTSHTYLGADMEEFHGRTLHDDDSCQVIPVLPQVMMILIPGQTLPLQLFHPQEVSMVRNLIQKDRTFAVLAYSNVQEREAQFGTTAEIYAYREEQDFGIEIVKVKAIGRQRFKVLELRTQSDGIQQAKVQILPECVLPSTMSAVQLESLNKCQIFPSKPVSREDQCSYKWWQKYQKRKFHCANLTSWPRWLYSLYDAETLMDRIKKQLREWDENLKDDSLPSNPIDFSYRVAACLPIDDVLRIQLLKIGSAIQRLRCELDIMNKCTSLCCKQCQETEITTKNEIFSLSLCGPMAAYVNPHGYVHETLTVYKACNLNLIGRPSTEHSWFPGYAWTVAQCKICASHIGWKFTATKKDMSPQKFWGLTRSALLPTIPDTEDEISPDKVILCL
Protein cereblon/Eukaryotic peptide chain release factor GTP-binding subunit ERF3A, sequence (P15170 whole entry): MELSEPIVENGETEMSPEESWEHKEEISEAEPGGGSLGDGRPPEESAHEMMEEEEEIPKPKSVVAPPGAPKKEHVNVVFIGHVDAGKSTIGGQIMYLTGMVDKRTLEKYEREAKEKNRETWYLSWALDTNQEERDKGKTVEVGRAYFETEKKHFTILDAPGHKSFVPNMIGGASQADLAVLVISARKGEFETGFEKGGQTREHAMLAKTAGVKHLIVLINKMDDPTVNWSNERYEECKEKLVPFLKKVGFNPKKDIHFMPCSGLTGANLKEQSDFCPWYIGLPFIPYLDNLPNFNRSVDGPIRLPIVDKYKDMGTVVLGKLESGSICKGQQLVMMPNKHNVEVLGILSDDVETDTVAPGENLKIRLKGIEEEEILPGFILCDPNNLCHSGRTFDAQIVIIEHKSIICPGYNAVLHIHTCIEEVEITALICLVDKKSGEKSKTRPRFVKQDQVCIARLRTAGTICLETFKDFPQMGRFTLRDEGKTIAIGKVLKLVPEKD

For `Cc1ccc(NC(=O)CC(C)c2ccc3c(c2)C(=O)N(C2CCC(=O)NC2=O)C3)cc1Cl` (stereo unspecified), the EC50 (usually the concentration that produces a half-maximal response) was greater than 10000 nM.

As to `Cc1ccc(NC(=O)/C=C/c2ccc3c(c2)C(=O)N(C2CCC(=O)NC2=O)C3)cc1Cl` (stereo unspecified), the EC50 was greater than 10000 nM.

Consider `Cc1c(Cl)cc(NC(=O)CCc2ccc3c(c2)C(=O)N(C2CCC(=O)NC2=O)C3)cc1CN1CCN(C)CC1` (stereo unspecified), for which the half-maximal effective concentration (EC50) worked out at 2200 nM.

Take `Cc1ccc(NC(=O)COc2ccc3c(c2)C(=O)N(C2CCC(=O)NC2=O)C3)cc1Cl` (stereo unspecified): the EC50 was greater than 10000 nM.

In the case of `Cc1c(Cl)cc(NC(=O)CCc2ccc3c(c2)C(=O)N(C2CCC(=O)NC2=O)C3)cc1CN1CC(N2CCOCC2)C1` (stereo unspecified), the half-maximal effective concentration (EC50) is 208 nM.

In the case of `Cc1c(Cl)cc(NC(=O)CCc2ccc3c(c2)C(=O)N(C2CCC(=O)NC2=O)C3)cc1CN1CCN(C2CCOCC2)CC1` (stereo unspecified), the concentration giving a half-maximal response (EC50) is 251 nM.

With `Cc1c(Cl)cc(NC(=O)CCc2ccc3c(c2)C(=O)N(C2CCC(=O)NC2=O)C3)cc1CN1CCC(N2CCOCC2)CC1` (stereo unspecified), the EC50 was 176 nM.

`Cc1cc(NC(=O)C(C)Cc2ccc3c(c2)CN(C2CCC(=O)NC2=O)C3=O)ccc1Cl` (stereo unspecified): the EC50 was greater than 10000 nM.

`Cc1c(Cl)cc(NC(=O)CCc2ccc3c(c2)C(=O)N(C2CCC(=O)NC2=O)C3)cc1CN1CCN(C2COC2)CC1` (stereo unspecified): the concentration giving a half-maximal response (EC50) worked out at 220 nM.

With `Cc1ccc(NC(=O)CNc2ccc3c(c2)C(=O)N(C2CCC(=O)NC2=O)C3)cc1Cl` (stereo unspecified), the concentration for a half-maximal effect (EC50) is greater than 10000 nM.

Regarding `Cc1ccc(NC(=O)/C=C/c2cccc3c2CN(C2CCC(=O)NC2=O)C3=O)cc1Cl` (stereo unspecified), the EC50 was 3060 nM.

`Cc1ccc(NC(=O)CCc2ccc3c(c2)C(=O)N(C2CCC(=O)NC2=O)C3)cc1Cl` (stereo unspecified): the concentration for a half-maximal effect (EC50) was 18 nM.

With `Cc1ccc(NC(=O)CCc2ccc3c(c2)C(=O)N(C2CCC(=O)NC2=O)C3=O)cc1Cl` (stereo unspecified), the EC50 turned out to be 447 nM.

Regarding `Cc1c(Cl)cc(NC(=O)CCc2ccc3c(c2)C(=O)N(C2CCC(=O)NC2=O)C3)cc1CN1CCOCC1` (stereo unspecified), the 50% effective concentration (EC50) is 48 nM.

Turning to `Cc1c(Cl)cc(NC(=O)CCc2ccc3c(c2)C(=O)N(C2CCC(=O)NC2=O)C3)cc1CN1CC2(COC2)C1` (stereo unspecified), the EC50 turned out to be 86 nM.

For the molecule `Cc1cc(NC(=O)CCc2ccc3c(c2)C(=O)N(C2CCC(=O)NC2=O)C3)ccc1Cl` (stereo unspecified), the EC50 was determined as 143 nM.
